Here are results for one compound from patent publication US20150306108A1, “COMPOSITIONS OF ALDH1A1 INHIBITORS AND METHODS OF USE IN TREATING CANCER” (Indiana University Research & Technology Corporation, priority 2014, published 2015).

For the assay, the target named is T1, ALDH4A1 (Homo sapiens, UniProt P30038).
T1 construct: The full length cDNA for human ALDH4A1 and ALDH5A1 were generously provided by Dania Mochly-Rosen; inferred from nickel-NTA purification and the pET-28a plasmid; made in house; host or cells: bacterial host inferred from the pET-28a plasmid
T1 sequence (P30038 25-563): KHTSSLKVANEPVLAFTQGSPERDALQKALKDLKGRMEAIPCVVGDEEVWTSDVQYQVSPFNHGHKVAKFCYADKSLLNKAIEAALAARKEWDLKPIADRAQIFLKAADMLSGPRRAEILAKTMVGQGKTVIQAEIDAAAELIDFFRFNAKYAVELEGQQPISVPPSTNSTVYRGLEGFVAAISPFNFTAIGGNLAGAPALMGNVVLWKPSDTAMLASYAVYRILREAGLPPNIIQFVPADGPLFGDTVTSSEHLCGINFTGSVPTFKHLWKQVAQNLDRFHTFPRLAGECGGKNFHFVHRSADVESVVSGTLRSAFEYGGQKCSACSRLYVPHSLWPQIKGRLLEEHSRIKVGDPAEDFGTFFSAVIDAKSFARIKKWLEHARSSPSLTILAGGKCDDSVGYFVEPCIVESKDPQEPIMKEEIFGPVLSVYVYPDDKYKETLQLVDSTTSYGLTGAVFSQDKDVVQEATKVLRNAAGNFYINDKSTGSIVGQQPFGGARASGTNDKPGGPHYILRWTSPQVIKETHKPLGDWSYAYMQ
As to the kind of experiment: ALDH4A1 selectivity assay. The assay is classed as biochemical. Particulars: 20 μM compound. The text has this: ALDH1A1, ALDH1A2, ALDH1A3, ALDH1B1, ALDH2, and ALDH3A1 were produced and purified as previously described. The ALDH1A1 protein used for the ALDH1A1-CM026 crystal contained an Asn-to-Ser SNP at residue 121. Unless where noted otherwise, ALDH1A1 WT protein was used for all aldehyde oxidation assays and for the ALDH1A1-CM053 structure. The full length cDNA for human ALDH4A1 and ALDH5A1 were generously provided by Dania Mochly-Rosen. ALDH4A1 was subcloned into the pET-28a expression plasmid and ALDH5A1 was in pTrcHis-Topo. The carboxyl terminal ALDH domain of rat ALDH1L1 was generously provided by Sergey Krupenko in the pRSET expression plasmid. ALDH1L1, ALDH4A1, and ALDH5A1 were expressed and purified as previously described for ALDH3A1^36 with the following modifications: 1) for ALDH1L1 and ALDH5A1 the medium contained 100 μg/mL ampicillin, 2) cells were lysed via 3 passages through a microfluidizer (DivTech Equipment), and 3) a single passage on a nickel-NTA column was used for purification, without the second Q-sepharose column used to purify ALDH3A1. Purified enzymes used for kinetics were stored at −80° C. ALDH1A1 used for crystallization was stored at −20° C. in a 50% (v/v) solution with glycerol and dialyzed against 10 mM Na^+-ACES pH 6.6 and 1 mM dithiothreitol at 4° C.

With `CC(C)CCn1c(CN2CCN(C(=O)c3ccco3)CC2)nc2c1c(=O)n(C)c(=O)n2C` [CM026], the “effect on ALDH4A1” value was “no effect”.
